Results on 19 molecules are retold here after patent US10280163B2 (BeiGene, Ltd., priority 2015, dated 2019).

The target of one experiment is T1, Recombinant IDO1 (Homo sapiens, UniProt P14902).
T1 construct: His tag (N); made in house; host or cells: E. coli
Description: IDO1 enzymatic assay. The class given is biochemical. In a few lines: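 N-terminally His-tagged enzyme from E. coli (50 nM) was incubated with compound, 1.3 mM D-tryptophan, 5 mM ascorbate, 6.25 μM methylene blue and 0.4 mg/mL catalase in 50 mM potassium phosphate pH 7.5, 0.1% BSA for 1.5 h at 24° C. N′-formylkynurenine formation was followed at 321 nm for 1 h; IC50 from rate slopes.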

The next experiment deals with T2, Recombinant TDO (Homo sapiens, UniProt P48775).
T2 construct: His tag (C); made in house; host or cells: E. coli
Description: TDO enzymatic assay. It is filed as biochemical. The procedure:
Recombinant TDO was overexpressed and purified from E. coli cells with a C-terminal His tag. TDO enzymatic assay was performed using the same methodology as IDO1 enzymatic assay except that 100 nM TDO and 0.5 mM L-tryptophan (Km concentration) were used in the TDO assay.

Experiment [1] addresses T3, cellular IDO1 in HeLa cells (Homo sapiens, UniProt P14902).
T3 construct: endogenous in cells; host or cells: HeLa cells (American Type Tissue Culture Collection), induced with human recombinant IFN-γ
Description: HeLa cell-based IDO1 Kyn (kynurenine) production assay. Particulars: IFN-γ 100 ng/mL, 48 hours. In a few lines:
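IFN-γ-induced HeLa cells (100 ng/mL) in phenol red-free DMEM with 0.4 mM L-Trp, compounds added together with IFN-γ, 48 h at 37 °C. Supernatant Kyn read at 480 nm after TCA precipitation and 4-(dimethylamino)benzaldehyde reaction. IC50 from four-parameter logistic fit.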

Setting [2] is: Table 1, 5-substituted imidazo[1,5-a]pyridines, 50 nM IDO1, 1.3 mM D-tryptophan, read-out: Enzyme IC50 (nM) IDO1.
Where [3] appears, read: Table 1, 5-substituted imidazo[1,5-a]pyridines, 100 nM TDO, 0.5 mM L-tryptophan, read-out: Enzyme IC50 (nM) TDO.
The mark [4] stands for this setting: Table 1, 5-substituted imidazo[1,5-a]pyridines.
[5] abbreviates: Table 2, 8-substituted imidazo[1,5-a]pyridines, 50 nM IDO1, 1.3 mM D-tryptophan, read-out: Enzyme IC50 (nM) IDO1.
Where [6] appears, read: Table 2, 8-substituted imidazo[1,5-a]pyridines, 100 nM TDO, 0.5 mM L-tryptophan, read-out: Enzyme IC50 (nM) TDO.
The mark [7] stands for this setting: Table 2, 8-substituted imidazo[1,5-a]pyridines.

As usually defined, the IC50 is the point on the concentration scale where inhibition reaches its midpoint. By EC50 is commonly meant the concentration at which the effect is half-maximal. Low values mean greater potency, high ones weaker potency.

Like-named read-outs stand apart in the source and are kept apart here.

T2 sequence (P48775 whole entry): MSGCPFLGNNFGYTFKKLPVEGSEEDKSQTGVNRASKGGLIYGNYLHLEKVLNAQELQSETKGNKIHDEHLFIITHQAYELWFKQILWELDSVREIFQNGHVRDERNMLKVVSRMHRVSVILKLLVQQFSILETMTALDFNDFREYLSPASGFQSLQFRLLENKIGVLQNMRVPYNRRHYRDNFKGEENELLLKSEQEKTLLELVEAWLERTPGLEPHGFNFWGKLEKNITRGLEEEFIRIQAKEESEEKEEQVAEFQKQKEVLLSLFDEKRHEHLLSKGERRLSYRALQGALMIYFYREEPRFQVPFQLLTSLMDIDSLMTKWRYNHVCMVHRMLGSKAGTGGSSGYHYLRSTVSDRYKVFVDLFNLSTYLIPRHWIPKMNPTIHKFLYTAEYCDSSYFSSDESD
T3 sequence (P14902 whole entry): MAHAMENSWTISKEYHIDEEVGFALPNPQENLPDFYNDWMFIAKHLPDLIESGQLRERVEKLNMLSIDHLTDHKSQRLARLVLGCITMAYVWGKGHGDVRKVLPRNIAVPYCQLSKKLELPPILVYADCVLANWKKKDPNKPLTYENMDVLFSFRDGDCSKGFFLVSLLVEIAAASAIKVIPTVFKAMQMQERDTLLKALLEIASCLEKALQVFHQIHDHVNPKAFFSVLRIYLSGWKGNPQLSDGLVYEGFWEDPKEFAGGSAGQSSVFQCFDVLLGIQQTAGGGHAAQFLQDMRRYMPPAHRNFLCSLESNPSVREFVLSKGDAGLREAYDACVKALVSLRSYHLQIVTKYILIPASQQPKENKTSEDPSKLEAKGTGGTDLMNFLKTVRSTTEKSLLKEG
T1 sequence (P14902 whole entry): as above

As for `OC(c1c(Cl)c(Cl)c(Cl)c2cncn12)C1CCCCC1` (stereo not drawn) [Example A154, cyclohexyl(6,7,8-trichloroimidazo[1,5-a]pyridin-5-yl)methanol], the IC50 is 430 nM at Recombinant IDO1 (setting [2]) and 8400 nM at Recombinant TDO (setting [3]). The EC50 in experiment [1] (setting [4]) amounted to 657 nM.
As for `OC(c1c(F)c(Cl)cc2cncn12)C1CCCCC1` (stereo not drawn) [Example A156, (7-chloro-6-fluoroimidazo[1,5-a]pyridin-5-yl)(cyclohexyl)methanol], the values for the IC50 on Recombinant IDO1 (setting [2]) and at Recombinant TDO (setting [3]) were 48 nM and 190 nM, respectively. In experiment [1] (setting [4]), this molecule registered a 50% effective concentration (EC50) of 1650 nM.
As for `OC(c1cccn2cncc12)C1CCCCC1` (stereo not drawn) [Example B001, Cyclohexyl(imidazo[1,5-a]pyridin-8-yl)methanol], the IC50 is 1000 nM at Recombinant IDO1 (setting [5]) and 630 nM at Recombinant TDO (setting [6]). In addition, the concentration for a half-maximal effect (EC50) in experiment [1] (setting [7]) is > 10000 nM.
On the same counts, the results for `OC(CC1CCCCC1)c1cccn2cncc12` (stereo not drawn) [Example B006, 2-Cyclohexyl-1-(imidazo[1,5-a]pyridin-8-yl)ethan-1-ol] are 330 nM, 3300 nM and > 10000 nM.
On the same counts, the results for `OC(CCC1CCCCC1)c1cccn2cncc12` (stereo not drawn) [Example B008, 3-cyclohexyl-1-(imidazo[1,5-a]pyridin-8-yl)propan-1-ol] are 620 nM, 17000 nM and > 10000 nM.
`Cc1cc(C(O)C2CCCCC2)c2cncn2c1` (stereo not drawn) [Example B011, Cyclohexyl (6-methylimidazo[1,5-a]pyridin-8-yl)methanol]: the IC50 on Recombinant IDO1 (setting [5]) turned out to be 170 nM; on Recombinant TDO (setting [6]) it was 190 nM. Besides, in experiment [1] (setting [7]), the concentration for a half-maximal effect (EC50) was > 10000 nM.
Regarding `Cc1cc(C(O)CC2CCCCC2)c2cncn2c1` (stereo not drawn) [Example B012, 2-Cyclohexyl-1-(6-methylimidazo[1,5-a]pyridin-8-yl)ethanol], the half-inhibitory concentration (IC50) on Recombinant IDO1 (setting [5]) and on Recombinant TDO (setting [6]) was 130 nM each time. Also, the EC50 in experiment [1] (setting [7]) is > 10000 nM.
Turning to `OC(CC1CCCCC1)c1cc(Cl)cn2cncc12` (stereo not drawn) [Example B013, 1-(6-Chloroimidazo[1,5-a]pyridin-8-yl)-2-cyclohexylethan-1-ol], the IC50 was determined as 240 nM on Recombinant IDO1 (setting [5]) and 190 nM on Recombinant TDO (setting [6]). The EC50 in experiment [1] (setting [7]) is > 10000 nM.
For `OC(c1cc(Cl)cn2cncc12)C1CCCCC1` (stereo not drawn) [Example B014, (6-Chloroimidazo[1,5-a]pyridin-8-yl)(cyclohexyl)methanol], the IC50 at Recombinant IDO1 (setting [5]) stood at 180 nM; on Recombinant TDO (setting [6]) it was 100 nM. Further, the EC50 in experiment [1] (setting [7]) was > 10000 nM.
With `Cc1ccn2cncc2c1C(O)CC1CCCCC1` (stereo not drawn) [Example B101, 2-cyclohexyl-1-(7-methylimidazo[1,5-a]pyridin-8-yl)ethan-1-ol], the figures for the IC50 at Recombinant IDO1 (setting [5]) and on Recombinant TDO (setting [6]) were 14 nM and 1000 nM, respectively. Also, the midpoint of the response in experiment [1] (setting [7]), the EC50, lay at 439 nM.
On to `Cc1ccn2cncc2c1C(O)C1CCCCC1` (stereo not drawn) [Example B102, cyclohexyl(7-methylimidazo[1,5-a]pyridin-8-yl)methanol], for which the IC50 was 23 nM at Recombinant IDO1 (setting [5]) and 360 nM at Recombinant TDO (setting [6]). Further, in experiment [1] (setting [7]), the EC50 turned out to be 1560 nM.
The matching figures for `OC(c1c(I)ccn2cncc12)C1CCCCC1` (stereo not drawn) [Example B103, cyclohexyl(7-iodoimidazo[1,5-a]pyridin-8-yl)methanol]: 69 nM, 8000 nM and 575 nM.
As to `OC(c1c(Cl)ccn2cncc12)C1CCCCC1` (stereo not drawn) [Example B104, (7-chloroimidazo[1,5-a]pyridin-8-yl)(cyclohexyl)methanol], the IC50 at Recombinant IDO1 (setting [5]) stood at 38 nM; at Recombinant TDO (setting [6]), 940 nM. This molecule also registered an EC50 in experiment [1] (setting [7]) of 2930 nM.
Take `OC(CC1CCCCC1)c1c(Cl)ccn2cncc12` (stereo not drawn) [Example B105, 1-(7-chloroimidazo[1,5-a]pyridin-8-yl)-2-cyclohexylethan-1-ol]: the IC50 on Recombinant IDO1 (selectivity examples, read-out: enzymatic IC50 value to IDO1) is 33 nM; at Recombinant TDO (selectivity examples, read-out: enzymatic IC50 value to TDO) it was 4900 nM. The half-maximal effective concentration (EC50) in experiment [1] (setting [7]) stood at 876 nM.
In the case of `CC(C)c1ccn2cncc2c1C(O)C1CCCCC1` (stereo not drawn) [Example B106, Cyclohexyl (7-isopropylimidazo[1,5-a]pyridin-8-yl)methanol], the IC50 at Recombinant IDO1 (setting [5]) came out at 138 nM; on Recombinant TDO (setting [6]), 1200 nM. In experiment [1] (setting [7]), it took 457 nM to reach a half-maximal effect (EC50).
Consider `OC(c1c(C2CC2)ccn2cncc12)C1CCCCC1` (stereo not drawn) [Example B107, Cyclohexyl (7-cyclopropylimidazo[1,5-a]pyridin-8-yl)methanol], for which the concentration for half-maximal inhibition (IC50) on Recombinant IDO1 (setting [5]) was 48 nM; at Recombinant TDO (setting [6]), 850 nM. For the same molecule, the EC50 in experiment [1] (setting [7]) worked out at 256 nM.
As to `CC(C)c1ccn2cncc2c1C(O)CC1CCCCC1` (stereo not drawn) [Example B108, 2-Cyclohexyl-1-(7-isopropylimidazo[1,5-a]pyridin-8-yl)ethan-1-ol], the IC50 at Recombinant IDO1 (setting [5]) worked out at 59 nM; at Recombinant TDO (setting [6]) it was 560 nM. Also, the EC50 in experiment [1] (setting [7]) was 389 nM.
Turning to `OC(c1c(C2CC2)ccn2cncc12)C1CCCC1` (stereo not drawn) [Example B109], the values for the IC50 on Recombinant IDO1 (setting [5]) and on Recombinant TDO (setting [6]) were 35 nM and 4600 nM, respectively. In experiment [1] (setting [7]), this molecule gave an EC50 of 940 nM.
For the molecule `OC(CC1CCCCC1)c1c(C2CC2)ccn2cncc12` (stereo not drawn) [Example B110], the IC50 is 53 nM at Recombinant IDO1 (setting [5]) and 1000 nM at Recombinant TDO (setting [6]). The molecule further yielded an EC50 in experiment [1] (setting [7]) of 259 nM.
